Test results reported in ChEMBL document CHEMBL1201862, “PubChem BioAssay data set” (2004).
Activity calls are given as the source filed them.

Columns and labels:
[1] = target: T1, Heat shock factor protein 1 (Mus musculus, UniProt P38532); assay: decrease of HSF1-responsive luciferase luminescence – cell-based, NIH3T3, dose retest, confirmation (AID 2382); type: functional;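 note: NIH3T3 fibroblasts with HSF1-driven luciferase reporter stressed by proteasome inhibitor MG132; luminescence from HSF1-driven luciferase expression after 8 hours of MG132 stress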
T1 sequence (P38532 whole entry): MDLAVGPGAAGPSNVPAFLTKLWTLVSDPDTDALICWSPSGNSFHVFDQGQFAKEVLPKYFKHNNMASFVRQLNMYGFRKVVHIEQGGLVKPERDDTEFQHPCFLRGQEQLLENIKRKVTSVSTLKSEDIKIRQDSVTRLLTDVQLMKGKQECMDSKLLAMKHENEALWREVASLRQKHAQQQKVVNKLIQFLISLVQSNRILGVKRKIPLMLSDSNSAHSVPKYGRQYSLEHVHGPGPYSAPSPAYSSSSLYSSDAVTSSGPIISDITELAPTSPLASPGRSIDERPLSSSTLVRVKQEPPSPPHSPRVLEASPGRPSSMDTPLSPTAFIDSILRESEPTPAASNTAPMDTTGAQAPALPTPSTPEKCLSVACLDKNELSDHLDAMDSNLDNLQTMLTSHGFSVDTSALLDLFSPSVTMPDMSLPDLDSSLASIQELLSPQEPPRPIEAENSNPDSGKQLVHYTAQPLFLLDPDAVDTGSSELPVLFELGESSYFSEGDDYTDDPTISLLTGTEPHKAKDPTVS

[2] = blockers of HIV-1 ZM109 envelope-driven cell-cell fusion – HeLa effector, CEM target cells, luciferase, cherry-pick, dose response (AID 652058); type: functional, cell-based;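 note: luciferase signal from HIV-1 Env mediated cell-cell fusion of effector and target cells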
[3] = HIV-1 AD8 envelope cell-cell fusion blockers – cherry-pick, dose response (AID 652062); type: functional, cell-based;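 note: luciferase signal from cell-cell fusion driven by HIV-1 clade B AD8 Env; potency is for inhibitors of fusion seen as a drop in luminescence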
[4] = off-target signal loss in HeLa-CEM21 co-culture – HeLa F-luc CTL cells, cherry-picked, counter-screen for HIV-1 Env fusion inhibitor project, dose response (AID 652040); type: functional, cell-based;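 note: potency for signal decrease marking cytotoxic or nonspecific inhibition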
[5] = blockers of HIV-1 envelope-mediated cell-cell fusion – cherry-pick, dose response (AID 652057); type: functional, cell-based
[6] = target: T2, Fatty acid synthase (Homo sapiens, UniProt P49327); assay: inhibition of human FAS-TE enzyme activity – biochemical, endpoint fluorescence intensity, uHTS hits, dose response (AID 624327); type: functional;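 note: fluorescence from hydrolysis of an O-methyl fluorescein acyl ester substrate by the enzyme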
T2 sequence (P49327 whole entry): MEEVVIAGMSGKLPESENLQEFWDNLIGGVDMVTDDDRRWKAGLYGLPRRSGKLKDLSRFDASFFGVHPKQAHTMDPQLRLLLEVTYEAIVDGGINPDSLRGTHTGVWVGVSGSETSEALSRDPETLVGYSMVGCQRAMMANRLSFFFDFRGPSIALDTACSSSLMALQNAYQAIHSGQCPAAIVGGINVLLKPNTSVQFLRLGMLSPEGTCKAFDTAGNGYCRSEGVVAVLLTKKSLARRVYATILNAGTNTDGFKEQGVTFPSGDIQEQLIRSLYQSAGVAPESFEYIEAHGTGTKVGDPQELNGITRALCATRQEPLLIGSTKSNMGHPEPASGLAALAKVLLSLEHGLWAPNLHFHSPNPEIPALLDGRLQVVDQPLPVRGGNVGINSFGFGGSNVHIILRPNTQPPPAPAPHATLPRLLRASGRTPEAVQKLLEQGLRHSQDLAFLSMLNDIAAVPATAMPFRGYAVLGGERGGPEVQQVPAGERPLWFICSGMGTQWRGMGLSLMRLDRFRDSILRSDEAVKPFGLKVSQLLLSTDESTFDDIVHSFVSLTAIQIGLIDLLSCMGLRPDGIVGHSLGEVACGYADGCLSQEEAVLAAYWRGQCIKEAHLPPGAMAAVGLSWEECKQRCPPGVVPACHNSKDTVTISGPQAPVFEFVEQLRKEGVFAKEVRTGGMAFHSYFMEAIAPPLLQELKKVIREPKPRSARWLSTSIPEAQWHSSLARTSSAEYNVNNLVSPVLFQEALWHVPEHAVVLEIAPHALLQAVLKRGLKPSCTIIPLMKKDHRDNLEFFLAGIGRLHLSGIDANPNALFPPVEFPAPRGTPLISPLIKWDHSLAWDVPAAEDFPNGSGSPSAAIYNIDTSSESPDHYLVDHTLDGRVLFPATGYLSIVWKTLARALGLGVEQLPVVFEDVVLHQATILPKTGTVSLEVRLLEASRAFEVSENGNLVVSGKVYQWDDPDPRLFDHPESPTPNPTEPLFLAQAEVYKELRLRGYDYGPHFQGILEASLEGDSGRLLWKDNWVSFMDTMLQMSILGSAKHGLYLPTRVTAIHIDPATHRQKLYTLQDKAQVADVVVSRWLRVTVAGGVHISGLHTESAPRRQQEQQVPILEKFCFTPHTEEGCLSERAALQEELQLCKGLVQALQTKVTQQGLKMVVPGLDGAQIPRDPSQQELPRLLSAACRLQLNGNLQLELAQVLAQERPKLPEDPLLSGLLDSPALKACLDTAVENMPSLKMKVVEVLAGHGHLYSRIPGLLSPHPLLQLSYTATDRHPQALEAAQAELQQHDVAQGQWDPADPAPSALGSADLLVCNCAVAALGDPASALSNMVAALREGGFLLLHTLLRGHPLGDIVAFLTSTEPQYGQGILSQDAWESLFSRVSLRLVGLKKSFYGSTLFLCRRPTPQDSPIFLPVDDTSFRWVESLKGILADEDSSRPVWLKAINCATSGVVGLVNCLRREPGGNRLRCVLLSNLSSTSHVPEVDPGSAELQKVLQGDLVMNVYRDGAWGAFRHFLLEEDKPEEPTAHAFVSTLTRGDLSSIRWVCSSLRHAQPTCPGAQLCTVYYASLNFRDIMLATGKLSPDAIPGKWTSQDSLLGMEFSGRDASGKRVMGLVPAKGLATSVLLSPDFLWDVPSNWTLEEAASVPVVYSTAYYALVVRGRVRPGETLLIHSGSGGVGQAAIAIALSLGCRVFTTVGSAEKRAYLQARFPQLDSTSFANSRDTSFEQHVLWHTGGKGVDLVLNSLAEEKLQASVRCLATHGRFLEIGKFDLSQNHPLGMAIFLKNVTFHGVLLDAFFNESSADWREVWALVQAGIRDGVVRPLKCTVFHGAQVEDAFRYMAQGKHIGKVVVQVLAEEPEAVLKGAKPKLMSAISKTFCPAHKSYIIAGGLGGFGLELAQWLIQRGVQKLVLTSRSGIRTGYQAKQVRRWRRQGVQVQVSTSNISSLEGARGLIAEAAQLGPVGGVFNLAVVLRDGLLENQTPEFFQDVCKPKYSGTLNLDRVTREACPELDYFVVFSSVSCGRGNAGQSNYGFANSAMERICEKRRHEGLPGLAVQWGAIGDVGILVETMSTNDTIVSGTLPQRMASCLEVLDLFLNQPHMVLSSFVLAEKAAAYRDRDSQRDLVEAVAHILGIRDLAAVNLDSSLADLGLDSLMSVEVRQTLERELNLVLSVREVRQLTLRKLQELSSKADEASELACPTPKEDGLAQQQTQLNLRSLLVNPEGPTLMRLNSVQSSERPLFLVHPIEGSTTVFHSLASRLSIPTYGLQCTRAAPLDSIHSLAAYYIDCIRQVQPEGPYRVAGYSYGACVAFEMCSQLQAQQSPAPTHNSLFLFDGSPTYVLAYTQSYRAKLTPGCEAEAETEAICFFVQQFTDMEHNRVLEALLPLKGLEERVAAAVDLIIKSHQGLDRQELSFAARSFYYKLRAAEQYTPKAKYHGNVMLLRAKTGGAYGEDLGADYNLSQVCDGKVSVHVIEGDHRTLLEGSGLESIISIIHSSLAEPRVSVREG

[7] = target: T2, Fatty acid synthase; assay: inhibition of human FAS-TE enzyme activity – biochemical, kinetic fluorescence intensity, dose response (AID 624326); type: functional;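 note: rate of fluorescence rise from hydrolysis of a fluorogenic O-methyl fluorescein ester substrate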
[8] = target: Voltage-dependent T-type calcium channel subunit alpha-1H (Homo sapiens, UniProt O95180); type: functional;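 note: channel activity triggered by adding a high calcium stimulation buffer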
[9] = target: T3, Leucine aminopeptidase (Plasmodium falciparum 3D7, UniProt Q8IL11); assay: P. falciparum M17LAP inhibitors, primary screen, biochemical, fluorogenic H-Leu-NHMec substrate, 1536-well (AID 1619); type: functional
T3 sequence (Q8IL11 whole entry): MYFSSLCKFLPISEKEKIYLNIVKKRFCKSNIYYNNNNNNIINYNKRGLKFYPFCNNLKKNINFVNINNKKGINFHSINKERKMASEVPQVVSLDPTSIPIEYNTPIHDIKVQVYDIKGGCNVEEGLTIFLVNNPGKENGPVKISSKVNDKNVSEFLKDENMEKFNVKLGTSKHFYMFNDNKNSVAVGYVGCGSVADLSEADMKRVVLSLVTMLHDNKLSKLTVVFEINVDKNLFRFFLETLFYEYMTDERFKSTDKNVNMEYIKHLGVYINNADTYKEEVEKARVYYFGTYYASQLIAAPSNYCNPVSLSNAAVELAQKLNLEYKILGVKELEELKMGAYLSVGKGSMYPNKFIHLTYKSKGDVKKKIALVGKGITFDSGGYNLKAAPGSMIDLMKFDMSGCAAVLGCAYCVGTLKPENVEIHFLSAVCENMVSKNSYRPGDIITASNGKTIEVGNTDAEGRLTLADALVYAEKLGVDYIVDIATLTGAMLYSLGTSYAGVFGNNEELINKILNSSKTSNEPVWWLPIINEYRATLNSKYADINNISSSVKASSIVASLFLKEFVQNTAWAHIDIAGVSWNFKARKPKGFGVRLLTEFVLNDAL

[10] = target: T4, Polyadenylate-binding protein 1 (Homo sapiens, UniProt P11940); assay: MLLE domain peptide-binding blockers, IC50 – biochemical, fluorescence polarization, FITC-PAM2 peptide, dose response (AID 602259); type: functional; conditions: read-out: IC50_Mean
T4 sequence (P11940 whole entry, the tested form may be a part): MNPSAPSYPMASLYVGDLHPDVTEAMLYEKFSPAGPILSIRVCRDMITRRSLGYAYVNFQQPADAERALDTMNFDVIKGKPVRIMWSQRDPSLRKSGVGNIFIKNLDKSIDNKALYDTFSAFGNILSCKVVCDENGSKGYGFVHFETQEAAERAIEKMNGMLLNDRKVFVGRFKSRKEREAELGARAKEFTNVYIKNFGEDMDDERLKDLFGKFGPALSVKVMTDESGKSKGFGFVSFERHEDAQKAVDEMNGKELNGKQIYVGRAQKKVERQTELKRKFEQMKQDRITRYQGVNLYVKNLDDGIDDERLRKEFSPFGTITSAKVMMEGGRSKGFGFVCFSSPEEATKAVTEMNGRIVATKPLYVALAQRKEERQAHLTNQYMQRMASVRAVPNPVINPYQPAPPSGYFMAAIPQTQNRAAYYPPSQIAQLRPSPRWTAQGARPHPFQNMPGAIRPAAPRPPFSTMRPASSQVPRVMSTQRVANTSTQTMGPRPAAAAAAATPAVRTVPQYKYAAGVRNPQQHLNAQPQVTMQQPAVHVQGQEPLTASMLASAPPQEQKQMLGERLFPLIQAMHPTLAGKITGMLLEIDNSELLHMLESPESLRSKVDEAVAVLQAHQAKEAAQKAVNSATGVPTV

[11] = target: T4, Polyadenylate-binding protein 1; assay: MLLE binding blockers, Cy5 peptide tracer – biochemical, fluorescence polarization, Cy5-PAM2 peptide, secondary, miRNA deadenylation inhibitor project, dose response (AID 602260); type: functional; conditions: read-out: IC50_Mean
[12] = target: T5, Zinc finger protein mex-5 (Caenorhabditis elegans, UniProt Q9XUB2); assay: potency of MEX-5 RNA-binding blockers – biochemical, C. elegans, fluorescence polarization, dose response (AID 1960)
T5 sequence (Q9XUB2 whole entry): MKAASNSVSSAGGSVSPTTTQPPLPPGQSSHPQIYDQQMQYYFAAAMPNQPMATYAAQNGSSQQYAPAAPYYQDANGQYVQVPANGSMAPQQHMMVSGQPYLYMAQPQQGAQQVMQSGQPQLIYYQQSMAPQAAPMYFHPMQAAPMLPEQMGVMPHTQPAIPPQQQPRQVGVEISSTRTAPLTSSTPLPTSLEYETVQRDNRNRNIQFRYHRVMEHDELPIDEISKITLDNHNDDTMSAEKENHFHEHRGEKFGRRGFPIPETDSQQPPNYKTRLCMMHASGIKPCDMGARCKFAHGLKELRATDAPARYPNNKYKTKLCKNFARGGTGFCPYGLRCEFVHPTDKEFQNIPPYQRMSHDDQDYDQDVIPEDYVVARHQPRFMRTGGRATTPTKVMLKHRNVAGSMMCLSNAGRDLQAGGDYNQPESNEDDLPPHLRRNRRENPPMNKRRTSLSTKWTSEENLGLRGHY

[13] = target: T6, RNA-binding protein pos-1 (Caenorhabditis elegans, UniProt G5EF15); assay: disruptors of C. elegans POS-1 RNA interaction – biochemical, fluorescence polarization, dose response (AID 1964);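 note: purified POS-1 fused to maltose binding protein made in E. coli; potency of compounds blocking POS-1 binding to fluorescent RNA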
T6 sequence (G5EF15 whole entry): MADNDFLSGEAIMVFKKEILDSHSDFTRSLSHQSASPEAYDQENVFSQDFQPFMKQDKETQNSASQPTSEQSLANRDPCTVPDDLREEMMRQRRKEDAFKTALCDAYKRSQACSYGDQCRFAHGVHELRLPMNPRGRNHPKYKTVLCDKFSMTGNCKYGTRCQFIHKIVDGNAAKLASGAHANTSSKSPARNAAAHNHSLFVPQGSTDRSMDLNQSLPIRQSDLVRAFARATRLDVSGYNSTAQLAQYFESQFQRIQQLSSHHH

[14] = tested on: Vero; assay: cells; type: functional; conditions: Chlorocebus sabaeus
[15] = target: Large T antigen (Simian virus 40, UniProt P03070); type: functional, Betapolyomavirus macacae;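 note: Confirmatory-stage PubChem screen for compounds that inhibit SV40 T antigen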
Chain of Large T antigen (P03070 whole entry): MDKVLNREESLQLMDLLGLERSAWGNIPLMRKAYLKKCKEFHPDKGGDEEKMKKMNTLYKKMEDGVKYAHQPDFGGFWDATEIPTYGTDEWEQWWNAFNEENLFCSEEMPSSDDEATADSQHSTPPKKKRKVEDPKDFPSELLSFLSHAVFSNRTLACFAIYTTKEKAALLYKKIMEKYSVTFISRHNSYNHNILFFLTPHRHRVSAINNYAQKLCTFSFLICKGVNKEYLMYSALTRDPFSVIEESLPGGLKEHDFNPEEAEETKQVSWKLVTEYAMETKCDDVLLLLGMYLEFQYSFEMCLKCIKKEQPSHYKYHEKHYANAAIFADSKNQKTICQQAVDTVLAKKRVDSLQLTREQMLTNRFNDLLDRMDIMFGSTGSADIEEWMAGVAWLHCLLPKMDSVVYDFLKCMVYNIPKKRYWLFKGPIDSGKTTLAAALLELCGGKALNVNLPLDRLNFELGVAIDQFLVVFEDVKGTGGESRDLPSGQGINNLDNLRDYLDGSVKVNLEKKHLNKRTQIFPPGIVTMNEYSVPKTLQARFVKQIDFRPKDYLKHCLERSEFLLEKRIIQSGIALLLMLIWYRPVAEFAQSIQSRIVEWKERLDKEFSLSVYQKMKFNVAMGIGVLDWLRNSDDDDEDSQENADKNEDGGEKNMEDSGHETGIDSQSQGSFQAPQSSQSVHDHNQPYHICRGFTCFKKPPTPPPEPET

[16] = target: Glucose-6-phosphate 1-dehydrogenase (Homo sapiens, UniProt P11413); assay: inhibition of Homo sapiens G6PD, dose series – biochemical, fluorescence, selectivity assay for P. falciparum G6PD inhibitor project, dose response (AID 504792); type: functional
Chain of Glucose-6-phosphate 1-dehydrogenase (P11413 whole entry): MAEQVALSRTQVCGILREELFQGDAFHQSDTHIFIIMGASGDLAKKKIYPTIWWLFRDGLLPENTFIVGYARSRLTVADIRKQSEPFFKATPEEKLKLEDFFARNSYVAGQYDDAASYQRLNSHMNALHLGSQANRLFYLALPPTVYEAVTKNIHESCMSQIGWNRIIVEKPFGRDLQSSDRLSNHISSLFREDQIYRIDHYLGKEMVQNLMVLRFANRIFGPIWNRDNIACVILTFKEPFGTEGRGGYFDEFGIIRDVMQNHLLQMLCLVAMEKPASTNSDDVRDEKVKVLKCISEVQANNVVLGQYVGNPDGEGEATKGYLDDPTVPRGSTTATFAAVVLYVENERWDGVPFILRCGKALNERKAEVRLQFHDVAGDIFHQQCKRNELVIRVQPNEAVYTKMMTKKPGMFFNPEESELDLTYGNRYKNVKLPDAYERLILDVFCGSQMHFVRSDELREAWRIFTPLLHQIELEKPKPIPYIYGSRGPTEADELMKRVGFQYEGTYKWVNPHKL

[17] = target: Cytochrome P450 3A4 (Homo sapiens, UniProt P08684);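 note: CYP3A4 tested as one member of a cytochrome P450 panel screen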
[18] = target: Cytochrome P450 2C19 (Homo sapiens, UniProt P33261); assay: Cytochrome panel assay with activity outcomes. Panel member name: p450-cyp2c19 Compounds with AC50 equal or less than 10 uM are considered active; type: functional; conditions: read-out: AC50
Chain of Cytochrome P450 2C19 (P33261 whole entry): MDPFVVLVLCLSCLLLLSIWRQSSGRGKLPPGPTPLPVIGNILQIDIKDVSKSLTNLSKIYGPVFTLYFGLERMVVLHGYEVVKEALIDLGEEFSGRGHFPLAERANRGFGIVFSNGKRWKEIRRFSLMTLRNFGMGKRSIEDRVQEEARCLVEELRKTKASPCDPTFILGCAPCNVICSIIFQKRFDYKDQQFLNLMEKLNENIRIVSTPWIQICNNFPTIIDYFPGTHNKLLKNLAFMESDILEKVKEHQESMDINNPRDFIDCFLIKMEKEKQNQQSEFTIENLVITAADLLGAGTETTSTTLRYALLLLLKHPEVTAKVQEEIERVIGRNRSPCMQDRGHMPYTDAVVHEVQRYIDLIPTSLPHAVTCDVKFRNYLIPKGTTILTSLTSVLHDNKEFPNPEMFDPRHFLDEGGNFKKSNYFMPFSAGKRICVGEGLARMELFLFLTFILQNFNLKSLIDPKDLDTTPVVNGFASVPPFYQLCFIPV

[19] = target: T7, Rac GTPase-activating protein 1 (Homo sapiens, UniProt Q9H0H5); assay: blockers of MgcRacGAP-driven Rac1 GTP hydrolysis – biochemical, ADP Hunter fluorescence, primary and confirmatory, confirmation (AID 624330); type: functional
T7 sequence (Q9H0H5 whole entry): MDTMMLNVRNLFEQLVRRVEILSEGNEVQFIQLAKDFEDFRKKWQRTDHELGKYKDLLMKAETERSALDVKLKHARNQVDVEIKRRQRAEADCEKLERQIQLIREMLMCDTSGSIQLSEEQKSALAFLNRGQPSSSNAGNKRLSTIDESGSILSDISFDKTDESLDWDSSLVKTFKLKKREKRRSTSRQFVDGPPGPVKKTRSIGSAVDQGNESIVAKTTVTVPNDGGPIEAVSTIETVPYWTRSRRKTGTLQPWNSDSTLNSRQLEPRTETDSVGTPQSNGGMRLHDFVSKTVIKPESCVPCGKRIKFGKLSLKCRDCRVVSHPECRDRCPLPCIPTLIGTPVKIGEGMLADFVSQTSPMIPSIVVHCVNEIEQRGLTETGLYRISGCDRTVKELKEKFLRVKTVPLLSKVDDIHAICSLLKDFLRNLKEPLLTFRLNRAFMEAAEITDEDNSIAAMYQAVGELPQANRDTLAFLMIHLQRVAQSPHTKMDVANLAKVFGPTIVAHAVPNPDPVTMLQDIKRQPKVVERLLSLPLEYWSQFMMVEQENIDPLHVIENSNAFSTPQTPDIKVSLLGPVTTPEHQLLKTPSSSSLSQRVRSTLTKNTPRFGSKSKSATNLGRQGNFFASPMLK

[20] = reduction of Shn3 3'UTR-driven luciferase in osteoblasts – cell-based, Clone20 osteoblasts, firefly luciferase, cherry-picked, dose response (AID 624132); type: functional;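 note: firefly luciferase luminescence from reporter carrying the Shn3 3'UTR in osteoblasts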

CCN(CC)c1ncnc2ccc(Br)cc12
EC50 [1]: 13.8 µM (active) | AC50 [2]: 6 µM (active) | AC50 [3]: 6.58 µM (active) | AC50 [4]: 3.74 µM (active) | AC50 [5]: 3.83 µM (active)

O=C(NNc1cccc([N+](=O)[O-])c1)/C(=C\c1cccnc1)NC(=O)c1ccccc1
IC50 [6]: 6.04 µM (active) | IC50 [7]: 4.39 µM (active)

CCC(=O)C1=C(NCCc2c(C)[nH]c3ccc(C)cc23)CC(c2ccccc2)CC1=O (stereo unspecified)
EC50 [8]: 798 µM (active)

NC(=O)c1c(NC(=O)C2CCCO2)sc2c1CCCCC2 (stereo unspecified)
IC50 [9]: 58.7 µM (active) | IC50 [10]: > 66 µM (inactive) | IC50 [11]: > 66 µM (inactive)

COc1ccccc1N1CCN(CC(O)COc2ccc3c(c2)CCC3)CC1 (stereo unspecified)
EC50 [8]: 5.92 µM (active)

CC(=O)Nc1c(O)nc(SCC(=O)Nc2sc3c(c2C#N)CCCCCC3)nc1O
IC50 [9]: 27.9 µM (active)

CCOC(=O)CSC(C)C(=O)Nc1nnc(C(C)C)s1 (stereo unspecified)
IC50 [9]: 37.7 µM (active)

Cc1[nH]c2ccccc2c1Cc1nnc(SCc2ccccc2)o1
EC50 [8]: 3.55 µM (active)

Cc1ccc(S(=O)(=O)N2CCN(S(=O)(=O)c3ccc(C)cc3)C2c2ccccc2)cc1
AC50 [2]: 4.2 µM (active) | AC50 [3]: 1.58 µM (active) | AC50 [4]: 4.72 µM (active) | AC50 [5]: 4.63 µM (active)

O=C1NC(=O)/C(=C2\C(=O)Nc3ccc([N+](=O)[O-])cc32)S1
IC50 [6]: 13.8 µM (active) | EC50 [12]: 21.5 µM (inconclusive) | IC50 [7]: 9.24 µM (active) | EC50 [13]: 13.2 µM (active)

COc1cc(/C=C/C(=O)c2ccc(NS(=O)(=O)c3ccc(C)cc3)cc2)ccc1OC(F)F
CC50 [14]: 22.5 µM (active)

CCN(C[C@H]1N[C@@](CC)(C(=O)OC)[C@H]2C(=O)N(Cc3ccccc3)C(=O)[C@@H]12)C(=O)Nc1ccc(Cl)cc1
AC50 [2]: < 0.26 µM (active) | AC50 [3]: 0.277 µM (active) | AC50 [4]: 0.367 µM (active) | AC50 [5]: < 0.26 µM (active)

COC(=O)C1=C(O)/C(=C/c2cccc(OC)c2O)N=C1C
IC50 [15]: 14.8 µM (active)

COc1ccc(-c2c[nH]nc2N)cc1
IC50 [9]: 60.8 µM (active)

COc1cc(NC(C)CCc2ccccc2)cc(OC)c1OC (stereo unspecified)
IC50 [16]: 43.3 µM (inactive)

CCc1ccc(C(=O)COC(=O)c2cc([N+](=O)[O-])ccc2NCCO)cc1
IC50 [6]: 1.87 µM (active) | IC50 [7]: 3.82 µM (active)

COc1ccc(CNC(=O)Cc2cn(C)c3ccccc23)c(OC)c1
IC50 [16]: > 80 µM (inactive)

Cc1ccc(NC(=O)CN(C)C(=O)CSc2n[nH]c(N)n2)cc1
IC50 [9]: 44.7 µM (active) | AC50 [17]: 31.6 µM (inconclusive) | AC50 [18]: 0.0355 µM (inconclusive)

COC(=O)c1cccc(NC(=O)Cn2cnc3ccccc3c2=O)c1
IC50 [9]: 43.5 µM (active)

CCOC(=O)Cc1cc(O)n2nc(C(C)(C)C)cc2n1
IC50 [16]: > 80 µM (inactive)

O=C(c1ccc(Cl)c(Cl)c1)N1CCC(=O)N(C(COCc2ccccc2)Cc2ccccc2)CC1 (stereo unspecified)
EC50 [8]: 2.88 µM (active)

Cc1ccsc1/C=C1/C(=O)NN(c2ccccc2)C1=O
IC50 [15]: 28.1 µM (active)

Cc1cc(NC(=O)/C=C/C(=O)N(c2ccccc2C)C(C(=O)NC2CCCC2)c2ccc(F)cc2)no1 (stereo unspecified)
CC50 [14]: 12.1 µM (active)

O=C(c1cc2sccc2n1Cc1ccc(F)cc1)N1CCCc2ccccc21
EC50 [8]: 4.88 µM (active)

N#CC1CCN(C(=O)c2ccc3c(Cl)c4c(nc3c2)CCCC4)CC1
IC50 [6]: 2.16 µM (active) | IC50 [7]: 1.89 µM (active)

CCCCN(Cc1ccccc1)S(=O)(=O)c1cc(Br)cc2c1N(C(C)=O)C(C)C2 (stereo unspecified)
EC50 [8]: 18.2 µM (active)

C/C(=N/Nc1ccc(C(=O)O)cc1)c1ccc2c(c1)Nc1ccccc1S2
IC50 [6]: 13.2 µM (active) | IC50 [19]: 50.6 µM (active) | IC50 [7]: 11.1 µM (active)

CCN(CC)S(=O)(=O)c1ccc(N2CCOCC2)c(NC(=O)c2nn(C(C)C)c(=O)c3ccccc23)c1
AC50 [20]: 15.6 µM (active)

CCOC1=C2[C@@H](CN(S(=O)(=O)c3ccccc3C)[C@H]2c2ccc(Cl)cc2)[C@H]2C(=O)NC(=O)[C@H]2C1
AC50 [2]: 3.92 µM (active) | AC50 [3]: 19.5 µM (active) | AC50 [4]: 7.02 µM (active) | AC50 [5]: 3.71 µM (active)

O=C(CCC(=O)Nc1ccccc1Cl)N/N=C/c1ccccc1
IC50 [16]: 31.6 µM (inactive)

N=C(N)N/N=C/c1ccc(Cl)c(Cl)c1
CC50 [14]: 21.4 µM (active)
